The source of these data is US8465726B2, “Stilbene derivatives and their use for binding and imaging amyloid plaques” (The Trustees of the University of Pennsylvania, priority 2004, dated 2013).

The structures appear in SMILES notation.

Data set [1] deals with amyloid deposits / Aβ plaques in the brain. The conditions noted are these: cited from earlier work.
A short description of data set [2]: Organ distribution in normal mice after iv injection. The class given is in vivo. The conditions noted are these: ICR mice. As for the experimental part:
The organs of interest were removed and weighed, and the radioactivity was assayed for radioactivity content with an automatic gamma counter. The percentage dose per organ was calculated by a comparison of the tissue counts to suitably diluted aliquots of the injected material. Total activities of blood were calculated under the assumption that they were 7% of the total body weight. The % dose/g of samples was calculated by comparing the sample counts with the count of the diluted initial dose.

On to `[11CH3]Nc1ccc(/C=C/c2ccc(O)cc2)cc1` [[^11C]SB-13], for which the “accumulation in the frontal cortex” value in data set [1] (mild to moderate AD patients, not in age-matched control subjects) was “high accumulation”.

For `CNc1ccc(C=Cc2ccc(OCCOCCOCCOCCF)cc2)cc1` [12c, (4-{2-[4-(2-{2-[2-(2-Fluoro-ethoxy)-ethoxy]-ethoxy}-ethoxy)-phenyl]-vinyl}-phenyl)-methyl-amine], the “Biodistribution, Blood” value came to 3.22 ± 0.20 % dose/g in data set [2] (2 min after iv injection), 1.88 ± 0.08 % dose/g in data set [2] (30 min after iv injection), 1.81 ± 0.48 % dose/g in data set [2] (1 hr after iv injection) and 1.60 ± 0.12 % dose/g in data set [2] (2 hr after iv injection). The “Biodistribution, Bone” value in data set [2] (2 min after iv injection) was 2.31 ± 0.12 % dose/g; in data set [2] (30 min after iv injection), 1.00 ± 0.02 % dose/g; in data set [2] (1 hr after iv injection), 0.98 ± 0.27 % dose/g; in data set [2] (2 hr after iv injection), 1.50 ± 0.05 % dose/g. Besides, the “Biodistribution, Brain” value in data set [2] (2 min after iv injection) was 6.59 ± 0.19 % dose/g; in data set [2] (30 min after iv injection), 1.27 ± 0.03 % dose/g; in data set [2] (1 hr after iv injection) it was 1.20 ± 0.10 % dose/g; in data set [2] (2 hr after iv injection) it was 1.21 ± 0.06 % dose/g.

With `CC(=C(C#N)C#N)c1ccc2cc(N(C)CCF)ccc2c1` [[^18F]FDDNP], the “relative residence time of the brain region of interest versus the pons” value in data set [1] (AD patients versus comparison subjects, PET) is “significantly higher in AD patients”.

As to `[11CH3]Nc1ccc(-c2nc3ccc(O)cc3s2)cc1` [[^11C]6-OH-BTA-1], in data set [1] (patients with diagnosed mild AD), the “retention in the cortex” value is “marked retention”.

For `CNc1ccc(C=Cc2ccc(OCCOCCF)cc2)cc1` [12a, [4-(2-{4-[2-(2-Fluoro-ethoxy)-ethoxy]-phenyl}-vinyl)-phenyl]-methyl-amine], the “Biodistribution, Blood” value is on record as 2.64 ± 0.55 % dose/g in data set [2] (2 min after iv injection), 2.42 ± 0.27 % dose/g in data set [2] (30 min after iv injection), 2.04 ± 0.16 % dose/g in data set [2] (1 hr after iv injection) and 2.77 ± 0.63 % dose/g in data set [2] (2 hr after iv injection). Moreover, the “Biodistribution, Bone” value in data set [2] (2 min after iv injection) was 1.89 ± 0.25 % dose/g; in data set [2] (30 min after iv injection) it was 1.40 ± 0.11 % dose/g; in data set [2] (1 hr after iv injection), 1.71 ± 0.23 % dose/g; in data set [2] (2 hr after iv injection), 2.88 ± 0.07 % dose/g. Further, the “Biodistribution, Brain” value in data set [2] (2 min after iv injection) amounted to 8.14 ± 2.03 % dose/g; in data set [2] (30 min after iv injection), 3.00 ± 0.16 % dose/g; in data set [2] (1 hr after iv injection) it was 2.60 ± 0.22 % dose/g; in data set [2] (2 hr after iv injection) it was 2.14 ± 0.06 % dose/g.

`CNc1ccc(C=Cc2ccc(OCCOCCOCCOCCOCCF)cc2)cc1` [12d, [4-(2-{4-[2-(2-{2-[2-(2-Fluoro-ethoxy)-ethoxy]-ethoxy}-ethoxy)-ethoxy]-phenyl}-vinyl)-phenyl]-methyl-amine]: the “Biodistribution, Blood” value in data set [2] (2 min after iv injection) is 4.99 ± 0.38 % dose/g; in data set [2] (30 min after iv injection) it was 4.66 ± 0.06 % dose/g; in data set [2] (1 hr after iv injection), 2.89 ± 0.11 % dose/g; in data set [2] (2 hr after iv injection), 2.59 ± 0.18 % dose/g. Moreover, the “Biodistribution, Bone” value in data set [2] (2 min after iv injection) is given as 2.24 ± 0.21 % dose/g; in data set [2] (30 min after iv injection) it was 2.29 ± 0.21 % dose/g; in data set [2] (1 hr after iv injection), 1.66 ± 0.01 % dose/g; in data set [2] (2 hr after iv injection) it was 2.35 ± 0.27 % dose/g. For the same compound, the “Biodistribution, Brain” value in data set [2] (2 min after iv injection) was found to be 7.30 ± 1.05 % dose/g; in data set [2] (30 min after iv injection), 2.43 ± 0.03 % dose/g; in data set [2] (1 hr after iv injection), 1.77 ± 0.11 % dose/g; in data set [2] (2 hr after iv injection), 1.62 ± 0.03 % dose/g.

Consider `CNc1ccc(C=Cc2ccc(OCCOCCOCC[18F])cc2)cc1` [[^18F]12b, [^18F]{4-[2-(4-{2-[2-(2-Fluoro-ethoxy)-ethoxy]-ethoxy}-phenyl)-vinyl]-phenyl}-methyl-amine], for which the “Biodistribution, Bone” value in data set [2] (2 hr after iv injection) turned out to be 2.74 % dose/g.
